Measurements reported in US20120302607A1, “C4-SUBSTITUTED ALPHA-KETO OXAZOLES” (The Scripps Research Institute, priority 2008, published 2012).
Like-named read-outs stand apart in the source and are kept apart here.

Key:
[1] = target: T1, truncated rat FAAH (rFAAH) (Rattus norvegicus, UniProt P97612); test: Rat FAAH inhibition enzyme assay (14C-oleamide hydrolysis, Dixon plot); type: biochemical
T1 construct: The truncated rat FAAH (rFAAH) was expressed in E. coli and purified as described by Patricelli et al; made in house; host or cells: E. coli
T1 sequence (P97612 30-579 limits assumed): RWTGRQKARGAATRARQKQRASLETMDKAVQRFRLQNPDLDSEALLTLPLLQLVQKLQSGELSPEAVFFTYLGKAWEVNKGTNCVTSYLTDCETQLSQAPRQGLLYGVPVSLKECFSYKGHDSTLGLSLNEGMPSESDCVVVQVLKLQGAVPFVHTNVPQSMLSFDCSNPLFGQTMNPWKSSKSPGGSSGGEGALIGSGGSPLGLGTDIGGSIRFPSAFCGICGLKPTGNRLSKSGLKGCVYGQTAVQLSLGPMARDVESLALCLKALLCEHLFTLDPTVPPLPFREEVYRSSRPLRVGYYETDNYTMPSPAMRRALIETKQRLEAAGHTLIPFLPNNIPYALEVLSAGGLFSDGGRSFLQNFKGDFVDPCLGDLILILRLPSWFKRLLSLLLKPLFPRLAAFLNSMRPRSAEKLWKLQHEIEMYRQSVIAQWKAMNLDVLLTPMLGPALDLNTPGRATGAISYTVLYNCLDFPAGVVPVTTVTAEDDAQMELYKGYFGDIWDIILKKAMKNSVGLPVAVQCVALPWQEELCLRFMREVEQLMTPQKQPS
Description: The purified recombinant rFAAH was used in the inhibition assays unless otherwise indicated.
The ^14C-labeled oleamide (substrate) and oleic acid (product) were extracted with EtOAc and analyzed by TLC. The Ki of the inhibitor was calculated using a Dixon plot (standard deviations are provided in the Supporting Information tables).

[2] = target: T2, FAAH (UniProt O08914); test: Proteome-wide serine hydrolase selectivity screening, FAAH; type: biochemical, human
T2 sequence (O08914 1-579): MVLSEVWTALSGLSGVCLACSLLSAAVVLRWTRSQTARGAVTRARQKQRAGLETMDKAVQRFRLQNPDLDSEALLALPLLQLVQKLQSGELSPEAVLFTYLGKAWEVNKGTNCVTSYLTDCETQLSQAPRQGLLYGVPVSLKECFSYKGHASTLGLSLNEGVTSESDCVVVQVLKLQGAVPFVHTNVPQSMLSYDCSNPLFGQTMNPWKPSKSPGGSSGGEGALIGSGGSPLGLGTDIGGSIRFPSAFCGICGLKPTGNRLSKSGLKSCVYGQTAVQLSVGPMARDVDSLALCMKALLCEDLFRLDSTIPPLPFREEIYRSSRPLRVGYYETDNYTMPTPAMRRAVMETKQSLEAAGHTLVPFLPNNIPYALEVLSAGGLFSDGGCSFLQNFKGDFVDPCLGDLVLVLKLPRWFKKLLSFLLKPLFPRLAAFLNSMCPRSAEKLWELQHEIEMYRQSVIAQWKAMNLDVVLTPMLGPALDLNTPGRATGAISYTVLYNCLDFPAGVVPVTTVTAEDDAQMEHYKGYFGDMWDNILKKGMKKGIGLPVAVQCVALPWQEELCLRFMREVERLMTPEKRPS

[3] = target: T3, membrane-associated hydrolase (KIAA1363) (UniProt Q8BLF1); test: Proteome-wide serine hydrolase selectivity screening, KIAA1363; type: biochemical; conditions: selectivity screening
T3 sequence (Q8BLF1 1-408): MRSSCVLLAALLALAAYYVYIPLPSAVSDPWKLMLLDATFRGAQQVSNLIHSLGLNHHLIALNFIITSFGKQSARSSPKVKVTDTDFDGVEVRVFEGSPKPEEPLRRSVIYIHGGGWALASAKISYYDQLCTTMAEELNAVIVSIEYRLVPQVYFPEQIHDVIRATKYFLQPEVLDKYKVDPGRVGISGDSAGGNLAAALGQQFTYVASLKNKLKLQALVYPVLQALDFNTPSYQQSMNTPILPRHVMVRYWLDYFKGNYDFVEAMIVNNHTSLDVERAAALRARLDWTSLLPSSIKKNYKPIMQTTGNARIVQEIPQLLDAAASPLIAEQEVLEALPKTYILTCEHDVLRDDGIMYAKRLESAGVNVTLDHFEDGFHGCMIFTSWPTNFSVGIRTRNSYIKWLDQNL

[4] = target: T4, triacylglycerol hydrolase (TGH) (UniProt Q8VCT4); test: Proteome-wide serine hydrolase selectivity screening, TGH; type: biochemical, human; conditions: selectivity screening
T4 sequence (Q8VCT4 1-565): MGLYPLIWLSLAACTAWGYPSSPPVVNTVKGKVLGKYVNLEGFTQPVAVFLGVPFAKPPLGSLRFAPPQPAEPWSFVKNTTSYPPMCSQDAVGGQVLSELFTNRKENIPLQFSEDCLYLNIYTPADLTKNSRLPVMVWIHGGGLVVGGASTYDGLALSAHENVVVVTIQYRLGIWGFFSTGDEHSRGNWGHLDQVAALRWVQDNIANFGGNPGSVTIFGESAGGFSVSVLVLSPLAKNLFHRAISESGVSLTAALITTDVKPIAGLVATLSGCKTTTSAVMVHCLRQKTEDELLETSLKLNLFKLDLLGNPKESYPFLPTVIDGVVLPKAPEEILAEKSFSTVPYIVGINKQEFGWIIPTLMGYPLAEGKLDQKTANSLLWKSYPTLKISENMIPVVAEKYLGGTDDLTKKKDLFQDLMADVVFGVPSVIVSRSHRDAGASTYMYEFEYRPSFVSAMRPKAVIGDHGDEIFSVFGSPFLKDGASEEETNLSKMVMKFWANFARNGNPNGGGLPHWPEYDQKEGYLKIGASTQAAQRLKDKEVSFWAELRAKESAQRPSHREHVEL

[5] = test system: membrane-associated hydrolase (KIAA1363); test: Proteome-wide serine hydrolase selectivity screening, KIAA1363; type: biochemical; conditions: value in parentheses; FAAH versus KIAA1363
[6] = test system: triacylglycerol hydrolase (TGH); test: Proteome-wide serine hydrolase selectivity screening, TGH; type: biochemical, human; conditions: FAAH versus TGH; for TGH (selectivity): value in parentheses
[7] = % hydration or hemiketal formation by 1H and 13C NMR in solvent; type: physicochemical; conditions: for form in protic solution: at C4, not C2, 1H and 13C NMR
Excerpt: The evaluation of Ki provides information about active site binding. […] More subtly, aldehyde 4g (and trifluoromethyl ketone 4i) was established to exist in protic solution as gem diols (at C4, not C2; ^1H and ^13C NMR, data in Examples below).

[8] = Table 1, purified recombinant rFAAH, pH 9.0, read-out: Rat FAAH inhibition Ki
[9] = Table 4, value ± error, read-out: Ki, inhibition results with calculated errors
[10] = CD3OD, at the C4 substituent carbonyl

Compound | Ki [1, 8] | Ki [1, 9] | IC50 [3] | IC50 [4] | also measured
O=C(CCCCCCc1ccccc1)c1nc(Br)co1 [Compound 4b, 1-(4-Bromooxazol-2-yl)-7-phenylheptan-1-one] | 3 nM | 3 ± 0.02 nM |  |  | 
CC(=O)c1coc(C(=O)CCCCCCc2ccccc2)n1 [Compound 4h, 1-(4-Acetyloxazol-2-yl)-7-phenylheptan-1-one] | 2 nM | 2 ± 0.07 nM |  |  | 
O=C(CCCCCCc1ccccc1)c1nc(Cl)co1 [Compound 4c, 1-(4-Chlorooxazol-2-yl)-7-phenylheptan-1-one] | 4 nM | 4 ± 0.05 nM |  |  | 
O=C(CCCCCCc1ccccc1)c1nc(-c2ccccn2)co1 [Compound 4k, 7-Phenyl-1-(4-(pyridin-2-yl)oxazol-2-yl)heptan-1-one] | 1.9 nM | 1.9 ± 0.02 nM | > 100000 nM | 10000 nM | Ki ([1]; Table 2, read-out: FAAH Ki): 1.9 nM; IC50 [2]: 30 nM; KIAA1363 (selectivity) [5]: (>3000); enhancement in FAAH selectivity ([6]; relative to 4a, text b175): > 40,000 fold; TGH (selectivity) [6]: (330)
O=C(O)c1coc(C(=O)CCCCCCc2ccccc2)n1 [Compound 4o, 2-(7-Phenylheptanoyl)oxazole-4-carboxylic Acid] | 53 nM | 53 ± 1 nM | > 100000 nM | 2500 nM | Ki ([1]; Table 2, read-out: FAAH Ki): 53 nM; IC50 [2]: 500 nM; KIAA1363 (selectivity) [5]: (>200); TGH (selectivity) [6]: (5)
O=C(CCCCCCc1ccccc1)c1ncco1 [Compound 4a] |  |  | 20000 nM | 20 nM | IC50 [2]: 2500 nM
COC(=O)c1coc(C(=O)CCCCCCc2ccccc2)n1 [Compound 4j, Methyl 2-(7-Phenylheptanoyl)oxazole-4-carboxylate] | 3.4 nM | 3.4 ± 0.05 nM |  |  | 
O=C(CCCCCCc1ccccc1)c1nc(-c2ccccc2)co1 [Compound 4n, 7-Phenyl-1-(4-phenyloxazol-2-yl)heptan-1-one] | 65 nM | 65 ± 4.4 nM |  |  | 
Cc1coc(C(=O)CCCCCCc2ccccc2)n1 [Compound 4e, 1-(4-Methyloxazol-2-yl)-7-phenylheptan-1-one] | 520 nM | 520 ± 1 nM |  |  | 
O=Cc1coc(C(=O)CCCCCCc2ccccc2)n1 [Compound 4g, 2-(7-Phenylheptanoyl)oxazole-4-carbaldehyde] | 55 nM | 55 ± 5 nM |  |  | % Hydration or Hemiketal Formation [7, 10]: >95% for CHO; % Hydration or Hemiketal Formation ([7]; CDCl3): 0%; form in protic solution [7]: gem diols
O=C(CCCCCCc1ccccc1)c1nc(I)co1 [Compound 4d, 1-(4-Iodooxazol-2-yl)-7-phenylheptan-1-one] | 6.5 nM | 6.5 ± 0.26 nM |  |  | 
CSc1coc(C(=O)CCCCCCc2ccccc2)n1 [Compound 4f, 1-(4-(Methylthio)oxazol-2-yl)-7-phenylheptan-1-one] | 29 nM | 29 ± 0.2 nM |  |  | 
O=C(CCCCCCc1ccccc1)c1nc(C(=O)C(F)(F)F)co1 [Compound 4i, 7-Phenyl-1-(4-(2,2,2-trifluoroacetyl)oxazol-2-yl)heptan-1-one] | 470 nM | 470 ± 2 nM |  |  | form in protic solution [7]: gem diols
O=C(CCCCCCc1ccccc1)c1nc(-c2cccnc2)co1 [Compound 4l, 7-Phenyl-1-(4-(pyridin-3-yl)oxazol-2-yl)heptan-1-one] | 18 nM | 18 ± 0.1 nM |  |  | % Hydration or Hemiketal Formation [7, 10]: >95% for COCF3; % Hydration or Hemiketal Formation ([7]; CDCl3): 33%

Further lines, with some results ahead:

Ki [1, 8] | Ki [1, 9] | IC50 [3] | IC50 [4] | Compound | also measured
 |  | > 100000 nM | > 100000 nM | O=C(O)c1cnc(C(=O)CCCCCCc2ccccc2)o1 [Compound 5d, reference compound] | IC50 [2]: 900 nM
3.7 nM | 3.7 ± 0.02 nM | 10000 nM | 60 nM | O=C(CCCCCCc1ccccc1)c1nc(C(F)(F)F)co1 [Compound 4t, 7-Phenyl-1-(4-(trifluoromethyl)oxazol-2-yl)heptan-1-one] | Ki ([1]; Table 2, read-out: FAAH Ki): 3.7 nM; IC50 [2]: 400 nM; KIAA1363 (selectivity) [5]: (25); TGH (selectivity) [6]: (0.15)
 |  | > 100000 nM | 20 nM | N#Cc1cnc(C(=O)CCCCCCc2ccccc2)o1 [Compound 5b, reference compound] | 
1.6 nM | 1.6 ± 0.001 nM |  |  | NC(=O)c1coc(C(=O)CCCCCCc2ccccc2)n1 [Compound 4p, 2-(7-Phenylheptanoyl)oxazole-4-carboxamide] | 
 |  | > 100000 nM |  | O=C(CCCCCCc1ccccc1)c1ncc(-c2ccccn2)o1 [Compound 5c, reference compound] | 
0.5 nM | 0.5 ± 0.009 nM | 30000 nM | 30 nM | N#Cc1coc(C(=O)CCCCCCc2ccccc2)n1 [Compound 4s, 2-(7-Phenylheptanoyl)oxazole-4-carbonitrile] | Ki ([1]; Table 2, read-out: FAAH Ki): 0.6 nM; IC50 [2]: 20 nM; KIAA1363 (selectivity) [5]: (1500); TGH (selectivity) [6]: (1.5)
740 nM | 740 ± 0.07 nM |  |  | COc1coc(C(=O)CCCCCCc2ccccc2)n1 [Compound 4u, 1-(4-Methoxyoxazol-2-yl)-7-phenylheptan-1-one] | 
 |  | > 100000 nM | 200 nM | O=C(CCCCCCc1ccccc1)c1ncc(C(F)(F)F)o1 [Compound 5a, reference compound] | Ki ([1]; Table 2, read-out: FAAH Ki): 0.3 nM; IC50 [2]: 70 nM; KIAA1363 (selectivity) [5]: (>1400); TGH (selectivity) [6]: (3)
35 nM | 35 ± 0.1 nM |  |  | CN(C)C(=O)c1coc(C(=O)CCCCCCc2ccccc2)n1 [Compound 4r, N,N-Dimethyl-2-(7-phenylheptanoyl)oxazole-4-carboxamide] | 
1.8 nM | 1.8 ± 0.005 nM |  |  | CNC(=O)c1coc(C(=O)CCCCCCc2ccccc2)n1 [Compound 4q, N-Methyl-2-(7-phenylheptanoyl)oxazole-4-carboxamide] | 
